The source of these data is ChEMBL document CHEMBL1649268, “Comparative in vitro activity profile of oritavancin against recent gram-positive clinical isolates” (2009).

≈ marks a conversion by molar mass, not a printed value.

The subject of the assay is Staphylococcus epidermidis. Put plainly: Antimicrobial activity against oxacillin-resistant Staphylococcus epidermidis clinical isolates by broth microdilution method. In kind it is functional.

`CN[C@H](CC(C)C)C(=O)N[C@H]1C(=O)N[C@@H](CC(N)=O)C(=O)N[C@H]2C(=O)N[C@H]3C(=O)N[C@H](C(=O)N[C@H](C(=O)O)c4cc(O)cc(O)c4-c4cc3ccc4O)[C@H](O)c3ccc(c(Cl)c3)Oc3cc2cc(c3O[C@@H]2O[C@H](CO)[C@@H](O)[C@H](O)[C@H]2O[C@H]2C[C@](C)(N)[C@H](O)[C@H](C)O2)Oc2ccc(cc2Cl)[C@H]1O` [VANCOMYCIN] displayed an MIC90 of 2 µg/mL (≈ 1.38 µM).
